Laboratory results as given in patent US20210177814A1, “USE OF GUANABENZ OR DERIVATES THEREOF FOR THE TREATMENT OF TYPE I IFN-DEPENDENT PATHOLOGIES” (INSERM (Institut National de la Santé et de la Recherche …, priority 2018, published 2021).

Tested on: RIG-I like receptor (RLR) dsRNA sensing pathway
Experiment: IRF3 activation and IFN-β expression in MEFs lipofected with poly(I:C)
Type: cell-based, mouse
Settings: WT and Gadd34-deficient
Method: FIG. 2: Interferon β (IFNb) production in response to cytosolic dsRNA (Poly I:C) in WT and Gadd34-deficient embryonic fibroblasts (MEFs) treated with Guanabenz.
(A) IFNb expression in response to lipofected dsRNA (poly I:C) was measured by qPCR (mRNA) or (B) by ELISA (secreted protein) after treatment with Guanabenz (GBZ). (C) Activation of the transcription IRF3 by phosphorylation that drives IFN-β mRNA expression was monitored by western blot in WT and Gadd34-deficient animals (ΔC/ΔC, KO or −/−) in response to lipofected poly I:C in presence of GBZ. (D) eIF2α A/A mutants MEFs (unable to phosphorylate eIF2α on Serine 52, that is targeted by GADD34 and to inhibit protein synthesis) were also tested for IFN-β production and IRF3 activation.

NC(N)=N/N=C/c1c(Cl)cccc1Cl [GBZ, 2-(2,6-dichlorobenzylidene)-hydrazinecarboximidamide]
IFN-β expression (mRNA by qPCR, secreted protein by ELISA): inhibited
activation of IRF3 (phosphorylation, western blot): inhibited
IFN-β expression (mRNA by qPCR, secreted protein by ELISA) (listed as Guanabenz): inhibit
activation of IRF3 (phosphorylation, western blot) (listed as Guanabenz): inhibit
